Tests used:
T25E M^pro = format: biochemical, SARS-CoV-2
M49L M^pro = format: biochemical, SARS-CoV-2

Row | Compound | increase of Ki compared to wild-type (T25E M^pro) | increase of Ki compared to wild-type (M49L M^pro)
1 | CC(C)(C)[C@H](NC(=O)C(F)(F)F)C(=O)N1C[C@H]2[C@@H]([C@H]1C(=O)N[C@H](C#N)C[C@@H]1CCNC1=O)C2(C)C [nirmatrelvir] | minimal to no observed impact on Ki | minimal to no observed impact on Ki
2 | Cn1cnc(Cn2c(=O)[nH]/c(=N\c3cc4cn(C)nc4cc3Cl)n(Cc3cc(F)c(F)cc3F)c2=O)n1 [ensitrelvir] | 300 fold | 40 fold
